Test results as given in patent US20100227880A1, “CHEMICAL COMPOUNDS” (priority 2006, published 2010).

System: HIV-1 Ba-L or HIV-1 IIIB infection of the HOS cell line (expressing hCXCR4/hCCR5/hCD4/pHIV-LTR-luciferase)
Assay: HOS HIV-1 Infectivity Assay
Assay type: cell-based
Conditions: Human immunodeficiency virus 1, HOS cells, luciferase readout, strain not given, read-out: Activity Level
Procedure: Compounds were profiled against two HIV-1 viruses, the M-tropic (CCR5 utilizing) Ba-L strain and the T-tropic (CXCR4 utilizing) IIIB strain. Ba-L was propagated in either peripheral blood lymphocytes or SupT1/CCR5+/CXCR4+ cells. IIIB was propagated in peripheral blood lymphocytes. Compounds were tested for their ability to block infection of the HOS cell line (expressing hCXCR4/hCCR5/hCD4/pHIV-LTR-luciferase) by either HIV-1 Ba-L or HIV-1 IIIB. Compound cytotoxicity was also examined in the absence of virus addition.
HOS cells (expressing hCXCR4/hCCR5/hCD4/pHIV-LTR-luciferase) were harvested and diluted in Dulbeccos modified Eagles media supplemented with 2% FCS to a concentration of 120,000 cells/ml. The cells were plated into 96-well plates (50 μl per well) and the plates were placed in a tissue culture incubator (370° C.; 5% CO2/95% air) for a period of 24 h.
Subsequently, 50 μl of the desired drug solution (2 times the final concentration) was added to each well and the plates were returned to the tissue culture incubator ([…]; 5% CO2/95% air) for 1 h. Following this incubation, 60 μl of diluted virus (4 times the final concentration) was added to 60 μl of 2× the final desired concentration of the compound and 100 μl this compound/virus mix was added to each well (approximately 2 million RLU per well of virus). The plates were returned to the tissue culture incubator ([…]; 5% CO2/95% air) and were incubated for a further 96 h.
Following this incubation the endpoint for the virally infected cultures was quantified following addition of Steady-Glo Luciferase assay system reagent (Promega, Madison, Wis.). Cell viability or non-infected cultures was measured using a CellTiter-Glo luminescent cell viability assay system (Promega, Madison, Wis.). All luminescent readouts are performed on a Topcount luminescence detector (Packard, Meridien, Conn.).

CN(C)c1cc(-c2c(CN(C)[C@H]3CCCc4cccnc43)nc3ccccn23)ccn1 [Example 28, (8S)-N-({3-[2-(Dimethylamino)-4-pyridinyl]imidazo[1,2-a]pyridin-2-yl}methyl)-N-methyl-5,6,7,8-tetrahydro-8-quinolinamine] gave an IC50 of 100 to 500 nM.
In the case of CN(Cc1nc2ccccn2c1C(=O)NCCN1CCCC1)C1CCCc2cccnc21 (stereo not shown) [Example 35, 2-{[methyl(5,6,7,8-tetrahydro-8-quinolinyl)amino]methyl}-N-[2-(1-pyrrolidinyl)ethyl]imidazo[1,2-a]pyridine-3-carboxamide], the IC50 is reported as 500 to 10000 nM.
With CN(Cc1nc2ccccn2c1CN1CCCCC1)[C@H]1CCCc2cccnc21 [Example 12, (8S)-N-Methyl-N-{[3-(1-piperidinylmethyl)imidazo[1,2-a]pyridin-2-yl]methyl}-5,6,7,8-tetrahydro-8-quinolinamine] the IC50 was less than 100 nM.
CC(C)N(C)Cc1c(CN(C)[C@H]2CCCc3cccnc32)nc2ccccn12 [Example 22, (8S)-N-Methyl-N-[(3-{[methyl(1-methylethyl)amino]methyl}imidazo[1,2-a]pyridin-2-yl)methyl]-5,6,7,8-tetrahydro-8-quinolinamine] was tested, and the IC50 was less than 100 nM.
CN(C)CCNC(=O)c1c(CN(C)C2CCCc3cccnc32)nc2ccccn12 (stereo not shown) [Example 33, N-[2-(dimethylamino)ethyl]-2-{[methyl(5,6,7,8-tetrahydro-8-quinolinyl)amino]methyl}imidazo[1,2-a]pyridine-3-carboxamide] showed an IC50 of 500 to 10000 nM.
CC(C)N1CCN(C(=O)c2c(CN(C)C3CCCc4cccnc43)nc3ccccn23)CC1 (stereo not shown) [Example 38, N-methyl-N-[(3-{[4-(1-methylethyl)-1-piperazinyl]carbonyl}imidazo[1,2-a]pyridin-2-yl)methyl]-5,6,7,8-tetrahydro-8-quinolinamine] was tested, and the IC50 was 500 to 10000 nM.
CN(Cc1nc2ccccn2c1CCCN)[C@H]1CCCc2cccnc21 [Example 2, (8S)-N-{[3-(3-Aminopropyl)imidazo[1,2-a]pyridin-2-yl]methyl}-N-methyl-5,6,7,8-tetrahydro-8-quinolinamine] was tested, and the IC50 was less than 100 nM.
CN(C)CCNCc1c(CN(C)C2CCCc3cccnc32)nc2ccccn12 (racemic) [Example 30, N,N-dimethyl-N′-[(2-{[methyl(5,6,7,8-tetrahydro-8-quinolinyl)amino]methyl}imidazo[1,2-a]pyridin-3-yl)methyl]-1,2-ethanediamine] showed an IC50 of 100 to 500 nM.
COCCN(CCOC)Cc1c(CN(C)[C@H]2CCCc3cccnc32)nc2ccccn12 [Example 19, (8S)-N-{[3-({Bis[2-(methyloxy)ethyl]amino}methyl)imidazo[1,2-a]pyridin-2-yl]methyl}-N-methyl-5,6,7,8-tetrahydro-8-quinolinamine] gave an IC50 of 100 to 500 nM.
CN(Cc1nc2ccccn2c1-c1ccnc(N2CCOCC2)c1)[C@H]1CCCc2cccnc21 [Example 29, (8S)-N-Methyl-N-({3-[2-(4-morpholinyl)-4-pyridinyl]imidazo[1,2-a]pyridin-2-yl}methyl)-5,6,7,8-tetrahydro-8-quinolinamine] was tested, and the IC50 was 100 to 500 nM.
CC(C)CN(C)Cc1c(CN(C)[C@H]2CCCc3cccnc32)nc2ccccn12 [Example 26, (8S)-N-Methyl-N-[(3-{[methyl(2-methylpropyl)amino]methyl}imidazo[1,2-a]pyridin-2-yl)methyl]-5,6,7,8-tetrahydro-8-quinolinamine] showed an IC50 of 100 to 500 nM.
In the case of CCN(CC)Cc1c(CN(C)[C@H]2CCCc3cccnc32)nc2ccccn12 [Example 20, (8S)-N-({3-[(Diethylamino)methyl]imidazo[1,2-a]pyridin-2-yl}methyl)-N-methyl-5,6,7,8-tetrahydro-8-quinolinamine], the IC50 is reported as 100 to 500 nM.
CN1CCN(Cc2c(CN(C)C3CCCc4cccnc43)nc3ccccn23)CC1 (stereo not shown) [Example 31, N-methyl-N-({3-[(4-methyl-1-piperazinyl)methyl]imidazo[1,2-d]pyridin-2-yl}methyl)-5,6,7,8-tetrahydro-8-quinolinamine] showed an IC50 of 100 to 500 nM.
